Data set [1] in a line: Hygroscopicity by scanned gravimetric vapour sorption. The format is physicochemical. The note with it: upwards scan; for Hygroscopicity classification: European Pharmacopea Technical Guide (1999), 40% to 80% relative humidity; for Hygroscopicity mass change: between 40% and 80% relative humidity. From the text: The mass change between 40% relative humidity and 80% relative humidity in the upwards scan was considered.

For data set [2], the target named is T1, human Cav1.2 channel (Homo sapiens, UniProt Q13936).
T1 construct: expressed in transfected cells; host or cells: HEK293
In words: In vitro assay L channel (FLIPR, KCl-induced calcium fluorescence). It counts as cell-based. The note with it: HEK293 cells expressing human Cav1.2 with β-2a and α2δ-1; 20 mM KCl; read-out: L channel antagonistic activity IC50. On the procedure:
The L channel antagonistic activity (IC50 values) of Reference Examples 1A, 2A, and 3A is determined in accordance with the following experimental method.
Human embryonic kidney (HEK293) cells expressing the human Cav1.2 channel in addition to the auxiliary subunits β-2a and α2δ-1, are grown in culture medium (DMEM containing 10% heat-inactivated fetal calf serum (FCS), 100 U/ml penicillin, 100 μg/ml streptomycin, 100 μg/ml G418, 40 μg/ml zeocin and 100 μg/ml hygromycin). The cells are seeded at 20.000 cells/well into 384-well black clear bottom sterile plates (poly-L-lysine-coated, Becton Dickinson). The seeded plates are incubated overnight at 37° C. in 5% CO2. The KCl solution is prepared as 80 mM stock solution in assay buffer (HBSS containing 0.1% BSA, 20 mM HEPES, 0.375 g/l NaHCO3, adjusted to pH 7.4 with NaOH) for use in the assay at a final concentration of 20 mM. Antagonists are prepared as 10 mM stock solutions in DMSO, then diluted in 384 w plates first in DMSO, then in assay buffer to obtain 3× stocks. On the day of the assay, 25 μl of staining buffer (HBSS containing 20 mM HEPES, 0.375 g/l NaHCO3, and 3 μM of the fluorescent calcium indicator fluo-4 AM (1 mM stock solution in DMSO, containing 10% pluronic) is added to each well of the seeded plate. The 384-well cell-plates are incubated for 60 min at 37° C. in 5% CO2 followed by washing with 2×50 μl per well using assay buffer leaving 50 μl/well of this buffer for equilibration at room temperature (30-60 min). Within the Fluorescent Imaging Plate Reader (FLIPR, Molecular Devices), antagonists are added to the plate in a volume of 25 μl/well, incubated for 3 min and finally 25 μl/well of KCl solution is added for cellular depolarization. Fluorescence is measured for each well at 2 second intervals for 8 minutes, and the area under the curve of each fluorescence peak is compared to the area of the fluorescence peak induced by 20 mM KCl with vehicle in place of antagonist. […]

In data set [3] the test system is isolated mouse hearts. In words: Effect on isolated hearts according to the Langendorff method. The conditions noted are these: read-out: EC50 Langendorff experiment. On the procedure:
Effect on Isolated Hearts According to the Langendorff Method (Lgdff)
The Reference Examples 1A, 2A, and 3A were tested for their potential to reduce blood pressure and their effect on the contractility of the heart muscle. EC50 values on isolated mouse hearts were determined according to Literature (Doring H J., The isolated perfused heart according to Langendorff technique—function—application, Physiol. Bohemoslov. 1990, 39(6), 481-504; Kligfield P, Homer H, Brachfeld N., A model of graded ischemia in the isolated perfused rat heart, J. Appl. Physiol. 1976 June, 40(6), 1004-8).

As a reminder, the IC50 is the concentration at which inhibition is half-maximal. Usually EC50 stands for the concentration giving half of the maximal effect.

T1 sequence (Q13936 whole entry): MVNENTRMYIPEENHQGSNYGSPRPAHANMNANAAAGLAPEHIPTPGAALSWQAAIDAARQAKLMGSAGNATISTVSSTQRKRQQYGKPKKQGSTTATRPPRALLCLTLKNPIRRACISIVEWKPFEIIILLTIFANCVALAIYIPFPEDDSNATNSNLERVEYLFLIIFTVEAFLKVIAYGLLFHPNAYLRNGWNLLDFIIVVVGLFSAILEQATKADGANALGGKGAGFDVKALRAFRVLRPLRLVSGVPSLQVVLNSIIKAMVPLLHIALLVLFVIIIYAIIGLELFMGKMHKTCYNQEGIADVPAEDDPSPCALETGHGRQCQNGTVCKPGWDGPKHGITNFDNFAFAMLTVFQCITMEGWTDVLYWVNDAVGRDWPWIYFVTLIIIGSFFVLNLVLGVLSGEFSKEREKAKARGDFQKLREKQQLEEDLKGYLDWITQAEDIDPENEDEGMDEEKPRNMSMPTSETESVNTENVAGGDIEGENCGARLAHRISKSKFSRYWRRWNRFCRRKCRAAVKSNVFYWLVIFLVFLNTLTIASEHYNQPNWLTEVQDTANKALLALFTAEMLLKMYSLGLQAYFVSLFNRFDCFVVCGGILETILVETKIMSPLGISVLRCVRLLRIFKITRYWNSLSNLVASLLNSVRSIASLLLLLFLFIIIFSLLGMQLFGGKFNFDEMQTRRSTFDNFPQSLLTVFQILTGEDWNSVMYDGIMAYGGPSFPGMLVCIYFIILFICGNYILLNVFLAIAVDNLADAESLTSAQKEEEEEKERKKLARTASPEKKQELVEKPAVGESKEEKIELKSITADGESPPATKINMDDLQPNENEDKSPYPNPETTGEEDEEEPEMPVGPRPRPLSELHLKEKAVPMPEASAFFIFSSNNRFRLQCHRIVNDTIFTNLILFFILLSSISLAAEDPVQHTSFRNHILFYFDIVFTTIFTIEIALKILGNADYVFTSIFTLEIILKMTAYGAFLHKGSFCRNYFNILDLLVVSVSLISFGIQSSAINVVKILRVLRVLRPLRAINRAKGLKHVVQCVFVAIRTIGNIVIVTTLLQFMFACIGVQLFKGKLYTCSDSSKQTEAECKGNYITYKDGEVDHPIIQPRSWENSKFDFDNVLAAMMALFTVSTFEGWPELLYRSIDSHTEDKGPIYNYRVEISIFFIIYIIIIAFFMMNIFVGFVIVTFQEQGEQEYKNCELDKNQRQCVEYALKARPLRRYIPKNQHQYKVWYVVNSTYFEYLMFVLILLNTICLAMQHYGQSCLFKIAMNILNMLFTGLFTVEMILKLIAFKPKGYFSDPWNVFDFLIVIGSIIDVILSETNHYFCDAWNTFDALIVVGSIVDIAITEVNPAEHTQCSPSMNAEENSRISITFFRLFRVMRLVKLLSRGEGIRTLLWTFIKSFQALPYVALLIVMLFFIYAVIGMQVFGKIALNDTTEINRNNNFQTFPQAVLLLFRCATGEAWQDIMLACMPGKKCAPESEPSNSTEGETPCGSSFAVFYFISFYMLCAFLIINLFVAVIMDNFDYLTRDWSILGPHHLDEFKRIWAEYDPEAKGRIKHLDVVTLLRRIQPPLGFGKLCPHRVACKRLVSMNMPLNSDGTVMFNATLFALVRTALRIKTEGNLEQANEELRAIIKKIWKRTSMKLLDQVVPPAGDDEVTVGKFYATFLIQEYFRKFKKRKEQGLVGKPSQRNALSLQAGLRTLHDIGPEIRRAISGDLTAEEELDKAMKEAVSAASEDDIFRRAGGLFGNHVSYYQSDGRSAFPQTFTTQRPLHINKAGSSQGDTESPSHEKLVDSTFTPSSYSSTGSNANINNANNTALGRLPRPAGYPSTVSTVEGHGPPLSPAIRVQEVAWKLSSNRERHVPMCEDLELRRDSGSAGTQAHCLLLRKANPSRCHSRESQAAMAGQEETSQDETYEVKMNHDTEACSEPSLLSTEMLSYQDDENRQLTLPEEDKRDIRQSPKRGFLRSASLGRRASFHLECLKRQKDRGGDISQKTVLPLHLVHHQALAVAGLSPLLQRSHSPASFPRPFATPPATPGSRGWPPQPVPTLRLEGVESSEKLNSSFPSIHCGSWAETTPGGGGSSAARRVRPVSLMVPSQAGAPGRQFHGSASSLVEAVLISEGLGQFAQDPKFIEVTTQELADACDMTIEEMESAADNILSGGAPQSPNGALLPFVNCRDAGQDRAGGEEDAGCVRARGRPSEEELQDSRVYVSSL
T1 sequence (Q08289 whole entry partner): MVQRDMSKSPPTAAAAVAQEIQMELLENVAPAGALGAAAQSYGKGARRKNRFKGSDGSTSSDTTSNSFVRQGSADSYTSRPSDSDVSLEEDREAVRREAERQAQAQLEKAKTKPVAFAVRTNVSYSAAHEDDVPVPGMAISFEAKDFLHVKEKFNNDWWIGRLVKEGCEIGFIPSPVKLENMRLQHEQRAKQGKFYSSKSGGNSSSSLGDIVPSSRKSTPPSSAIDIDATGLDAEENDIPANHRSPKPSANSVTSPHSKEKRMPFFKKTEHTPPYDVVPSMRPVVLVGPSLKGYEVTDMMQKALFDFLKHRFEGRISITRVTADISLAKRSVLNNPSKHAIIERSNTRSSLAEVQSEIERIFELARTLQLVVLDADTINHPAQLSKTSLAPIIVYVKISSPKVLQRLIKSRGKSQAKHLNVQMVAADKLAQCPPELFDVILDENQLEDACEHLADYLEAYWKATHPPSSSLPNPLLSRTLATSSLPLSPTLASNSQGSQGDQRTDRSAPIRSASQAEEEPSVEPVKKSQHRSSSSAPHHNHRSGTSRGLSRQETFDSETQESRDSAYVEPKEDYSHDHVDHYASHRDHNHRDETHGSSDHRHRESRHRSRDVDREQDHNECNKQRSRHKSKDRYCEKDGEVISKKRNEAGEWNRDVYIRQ
T1 sequence (P54289 25-946 partner limits assumed): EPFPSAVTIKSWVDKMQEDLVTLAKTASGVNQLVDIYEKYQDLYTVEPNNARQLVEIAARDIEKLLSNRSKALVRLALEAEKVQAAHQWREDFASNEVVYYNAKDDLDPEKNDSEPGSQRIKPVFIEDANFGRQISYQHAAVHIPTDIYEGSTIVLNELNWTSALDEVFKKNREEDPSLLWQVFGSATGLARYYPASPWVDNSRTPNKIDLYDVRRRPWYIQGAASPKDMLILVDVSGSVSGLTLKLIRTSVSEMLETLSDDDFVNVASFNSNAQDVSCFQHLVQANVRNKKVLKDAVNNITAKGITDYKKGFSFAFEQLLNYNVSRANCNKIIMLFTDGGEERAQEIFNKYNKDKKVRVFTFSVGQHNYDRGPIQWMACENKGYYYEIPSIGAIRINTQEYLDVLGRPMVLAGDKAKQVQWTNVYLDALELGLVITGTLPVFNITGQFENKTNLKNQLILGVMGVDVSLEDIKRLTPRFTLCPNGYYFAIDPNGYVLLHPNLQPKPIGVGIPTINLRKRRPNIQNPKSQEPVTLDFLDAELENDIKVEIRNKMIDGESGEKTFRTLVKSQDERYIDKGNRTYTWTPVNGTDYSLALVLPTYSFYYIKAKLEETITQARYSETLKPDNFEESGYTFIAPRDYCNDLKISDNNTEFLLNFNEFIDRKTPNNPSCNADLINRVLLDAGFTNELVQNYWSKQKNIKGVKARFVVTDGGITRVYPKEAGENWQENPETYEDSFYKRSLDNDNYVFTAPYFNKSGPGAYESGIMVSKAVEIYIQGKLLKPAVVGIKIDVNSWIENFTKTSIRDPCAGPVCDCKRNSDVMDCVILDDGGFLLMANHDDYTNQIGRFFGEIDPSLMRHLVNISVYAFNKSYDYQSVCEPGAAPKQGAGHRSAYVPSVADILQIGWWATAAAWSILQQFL
T1 sequence (P54289 947-1103 partner limits assumed): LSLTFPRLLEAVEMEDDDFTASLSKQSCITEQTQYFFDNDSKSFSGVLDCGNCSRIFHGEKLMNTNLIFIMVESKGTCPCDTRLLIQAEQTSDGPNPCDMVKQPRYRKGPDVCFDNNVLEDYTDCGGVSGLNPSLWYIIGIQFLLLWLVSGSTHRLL

For the molecule `Br.Br.COc1ccc(OC)c2[nH]c(CCCN(C)CCC3(OC(=O)C(C)C)CC4CCC3C=C4c3ccccc3)nc12` (stereo not drawn) [di-hydrobromic acid salt of COMPOUND], in data set [1], the Hygroscopicity classification result is given as “Non hygroscopic” and the Hygroscopicity mass change stood at 0.1%.

For the molecule `COc1ccc(OC)c2[nH]c(CCCN(C)CC[C@]3(OC(=O)C(C)C)C[C@H]4CC[C@@H]3C=C4c3ccccc3)nc12` [Reference Example 3A, Isobutyric acid (1R,2R,4R)-2-(2-{[3-(4,7-dimethoxy-1H-benzoimidazol-2-yl)-propyl]-methyl-amino}-ethyl)-5-phenyl-bicyclo[2.2.2]oct-5-en-2-yl ester], the IC50 in data set [2] lay within 0.156 to 0.439 µM.

As for `COc1ccc(OC)c2[nH]c(CCCN(C)CC[C@]3(OC(=O)C(C)C)C[C@H]4CC[C@@H]3C=C4c3ccccc3)nc12` (racemic) [Reference Example 1A, rac-Isobutyric acid (1R*,2R*,4R*)-2-(2-{[3-(4,7-dimethoxy-1H-benzoimidazol-2-yl)-propyl]-methyl-amino}-ethyl)-5-phenyl-bicyclo[2.2.2]oct-5-en-2-yl ester], the EC50 in data set [3] was found to be 0.005 µM. For the same molecule, in data set [2], the IC50 was in the range of 0.156 to 0.439 µM.

Consider `COc1ccc(OC)c2[nH]c(CCCN(C)CCC3(OC(=O)C(C)C)CC4CCC3C=C4c3ccccc3)nc12.O=C(O)/C=C\C(=O)O.O=C(O)/C=C\C(=O)O` (stereo not drawn) [di-maleic acid salt of COMPOUND], for which, in data set [1], the Hygroscopicity classification result is given as “Non hygroscopic” and the Hygroscopicity mass change was 0.1%.

Turning to `COc1ccc(OC)c2[nH]c(CCCN(C)CC[C@@]3(OC(=O)C(C)C)C[C@@H]4CC[C@H]3C=C4c3ccccc3)nc12` [Reference Example 2A, Isobutyric acid (1S,2S,4S)-2-(2-{[3-(4,7-dimethoxy-1H-benzoimidazol-2-yl)-propyl]-methyl-amino}-ethyl)-5-phenyl-bicyclo[2.2.2]oct-5-en-2-yl ester], in data set [2], the IC50 was in the range of 0.156 to 0.439 µM.

For the molecule `COc1ccc(OC)c2[nH]c(CCCN(C)CCC3(OC(=O)C(C)C)CC4CCC3C=C4c3ccccc3)nc12.Cl.Cl` (stereo not drawn) [di-hydrochloric acid salt of COMPOUND], in data set [1], the Hygroscopicity classification entry is listed as “Slightly hygroscopic (mass” and the Hygroscopicity mass change result is listed as “change 0.5%)”.

For the molecule `COc1ccc(OC)c2[nH]c(CCCN(C)CCC3(OC(=O)C(C)C)CC4CCC3C=C4c3ccccc3)nc12.COc1ccc(OC)c2[nH]c(CCCN(C)CCC3(OC(=O)C(C)C)CC4CCC3C=C4c3ccccc3)nc12.O=C(O)/C=C/C(=O)O.O=C(O)/C=C/C(=O)O.O=C(O)/C=C/C(=O)O` (stereo not drawn) [sesqui-fumaric acid salt of COMPOUND], in data set [1], the Hygroscopicity classification result was “Non hygroscopic” and the Hygroscopicity mass change turned out to be 0.1%.

(Values after patent US8492555B2, “Salts of isobutyric acid (1 R*, 2R*, 4R*)-2-(2-{[3-(4,7-dimethoxy-1 H-benzoimidazol-2-yl)-methyl-amino}-ethyl)-5-phenyl-bicyclo[2.2.2]oct-5-en-2-yl ester” (Actelion Pharmaceuticals Ltd., priority 2008, dated 2013).)
